Results taken from PubChem BioAssay AID2060511 (Molecular Pharmacology Branch, DTP, NCI, 2025).

Tested on: 422866-222-R5-J1-PDC spheroids with HUVEC/MSC, viability
Assay: Anticancer human tumor 422866-222-R5-J1-PDC patient-derived pancreatic adenocarcinoma cell line growth inhibition [GQUAD]
Conditions: for IC50: curve of first compound; for viability, T/C: stronger effect = lower value; active means viability on the fitted dose curve at most 10% of control; inactive means the rest
How it was run: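 Viability of tumor cells grown as complex spheroids with endothelial and stromal cells, exposed to drug combinations. Top concentration at or near clinical Cmax (else 10 microM), diluted in half-log increments.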

[1] = second compound 0.0316 µM, first compound 0.0316 µM
[2] = second compound 0.0316 µM, first compound 0.1 µM
[3] = second compound 0.0316 µM, first compound 0.316 µM
[4] = second compound 0.0316 µM, first compound 1 µM
[5] = second compound 0.0316 µM, first compound 3.16 µM
[6] = second compound 0.0316 µM, first compound 10 µM
[7] = second compound 0.1 µM, first compound 0.0316 µM
[8] = second compound 0.1 µM, first compound 0.1 µM
[9] = second compound 0.1 µM, first compound 0.316 µM
[10] = second compound 0.1 µM, first compound 1 µM
[11] = second compound 0.1 µM, first compound 3.16 µM
[12] = second compound 0.1 µM, first compound 10 µM
[13] = second compound 0.316 µM, first compound 0.0316 µM
[14] = second compound 0.316 µM, first compound 0.1 µM
[15] = second compound 0.316 µM, first compound 0.316 µM
[16] = second compound 0.316 µM, first compound 1 µM
[17] = second compound 0.316 µM, first compound 3.16 µM
[18] = second compound 0.316 µM, first compound 10 µM
[19] = second compound 1 µM, first compound 0.0316 µM
[20] = second compound 1 µM, first compound 0.1 µM
[21] = second compound 1 µM, first compound 0.316 µM
[22] = second compound 1 µM, first compound 1 µM
[23] = second compound 1 µM, first compound 3.16 µM
[24] = second compound 1 µM, first compound 10 µM
[25] = second compound 3.16 µM, first compound 0.0316 µM
[26] = second compound 3.16 µM, first compound 0.1 µM
[27] = second compound 3.16 µM, first compound 0.316 µM
[28] = second compound 3.16 µM, first compound 1 µM
[29] = second compound 3.16 µM, first compound 3.16 µM
[30] = second compound 3.16 µM, first compound 10 µM
[31] = second compound 10 µM, first compound 0.0316 µM
[32] = second compound 10 µM, first compound 0.1 µM
[33] = second compound 10 µM, first compound 0.316 µM
[34] = second compound 10 µM, first compound 1 µM
[35] = second compound 10 µM, first compound 3.16 µM
[36] = second compound 10 µM, first compound 10 µM
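Further: spheroids exposed to compounds for seven days before reading.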
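Wherever viability, T/C is given: percent viability relative to DMSO vehicle control taken as 100%.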

CC(=O)O[C@H]1C(=O)[C@@]2(C)[C@H]([C@H](OC(=O)c3ccccc3)[C@]3(O)C[C@H](OC(=O)[C@H](O)[C@@H](NC(=O)c4ccccc4)c4ccccc4)C(C)=C1C3(C)C)[C@]1(OC(C)=O)CO[C@@H]1C[C@@H]2O + CN(C)c1ccc(Nc2c3ccc(NC(=O)CCN4CCCC4)cc3nc3cc(NC(=O)CCN4CCCC4)ccc23)cc1
> 10000 nM: IC50 (second compound 0.0316 µM) | IC50 (second compound 0.1 µM) | IC50 (second compound 0.316 µM) | IC50 (second compound 1 µM) | IC50 (second compound 3.16 µM) | IC50 (second compound 10 µM)
inactive: viability, T/C [1] 78.2% | viability, T/C [2] 72.8% | viability, T/C [3] 63.9% | viability, T/C [4] 66.5% | viability, T/C [5] 75.6% | viability, T/C [6] 86% | viability, T/C [7] 88% | viability, T/C [8] 60.7% | viability, T/C [9] 65.1% | viability, T/C [10] 67.6% | viability, T/C [11] 74.3% | viability, T/C [12] 79.7% | viability, T/C [13] 87.6% | viability, T/C [14] 63.1% | viability, T/C [15] 51.3% | viability, T/C [16] 72.4% | viability, T/C [17] 77.2% | viability, T/C [18] 81.4% | viability, T/C [19] 59.5% | viability, T/C [20] 60.5% | viability, T/C [21] 74.6% | viability, T/C [22] 65.9% | viability, T/C [23] 71% | viability, T/C [24] 85.6% | viability, T/C [25] 62.9% | viability, T/C [26] 68.9% | viability, T/C [27] 68.1% | viability, T/C [28] 65.2% | viability, T/C [29] 76.3% | viability, T/C [30] 87.6% | viability, T/C [31] 63.8% | viability, T/C [32] 67.1% | viability, T/C [33] 76.5% | viability, T/C [34] 79.9% | viability, T/C [35] 80.3% | viability, T/C [36] 92.4%

CC(C)(O)C1CCC(Nc2ccc3ncc(-c4cccc(C(F)(F)F)c4)n3n2)CC1 (stereo not drawn) + CN(C)c1ccc(Nc2c3ccc(NC(=O)CCN4CCCC4)cc3nc3cc(NC(=O)CCN4CCCC4)ccc23)cc1
1770 nM: IC50 (second compound 1 µM)
> 10000 nM: IC50 (second compound 10 µM)
inactive: viability, T/C [1] 88% | viability, T/C [2] 80.5% | viability, T/C [3] 92.9% | viability, T/C [4] 71.8% | viability, T/C [5] 38.4% | viability, T/C [6] 33.1% | viability, T/C [7] 90.2% | viability, T/C [8] 87.4% | viability, T/C [9] 81.1% | viability, T/C [10] 68.5% | viability, T/C [11] 45.7% | viability, T/C [12] 39% | viability, T/C [13] 72.7% | viability, T/C [14] 82.4% | viability, T/C [15] 66.1% | viability, T/C [16] 58.5% | viability, T/C [17] 41.3% | viability, T/C [18] 36.9% | viability, T/C [19] 85.6% | viability, T/C [20] 80.2% | viability, T/C [21] 77.2% | viability, T/C [22] 57.6% | viability, T/C [23] 42.1% | viability, T/C [24] 35.4% | viability, T/C [25] 82.2% | viability, T/C [26] 77.2% | viability, T/C [27] 64.3% | viability, T/C [28] 63.5% | viability, T/C [29] 33% | viability, T/C [30] 40.6% | viability, T/C [31] 77.4% | viability, T/C [32] 69.6% | viability, T/C [33] 79.1% | viability, T/C [34] 75.4% | viability, T/C [35] 63.2% | viability, T/C [36] 55.5%
2090 nM: IC50 (second compound 0.0316 µM)
1570 nM: IC50 (second compound 3.16 µM)
2670 nM: IC50 (second compound 0.1 µM)
1710 nM: IC50 (second compound 0.316 µM)

Cc1[nH]c2ccccc2c1CCNCc1ccc(/C=C/C(=O)NO)cc1 + CN(C)c1ccc(Nc2c3ccc(NC(=O)CCN4CCCC4)cc3nc3cc(NC(=O)CCN4CCCC4)ccc23)cc1
inactive: viability, T/C (second compound 0.0316 µM, first compound 0.000999 µM) 118% | viability, T/C (second compound 0.0316 µM, first compound 0.00316 µM) 98.7% | viability, T/C (second compound 0.0316 µM, first compound 0.00999 µM) 116% | viability, T/C [1] 83.2% | viability, T/C (second compound 0.0316 µM, first compound 0.0999 µM) 54.3% | viability, T/C [3] 56.8% | viability, T/C (second compound 0.1 µM, first compound 0.000999 µM) 98.3% | viability, T/C (second compound 0.1 µM, first compound 0.00316 µM) 102% | viability, T/C (second compound 0.1 µM, first compound 0.00999 µM) 119% | viability, T/C [7] 89.9% | viability, T/C (second compound 0.1 µM, first compound 0.0999 µM) 73.5% | viability, T/C [9] 61.5% | viability, T/C (second compound 0.316 µM, first compound 0.000999 µM) 105% | viability, T/C (second compound 0.316 µM, first compound 0.00316 µM) 102% | viability, T/C (second compound 0.316 µM, first compound 0.00999 µM) 98.7% | viability, T/C [13] 76% | viability, T/C (second compound 0.316 µM, first compound 0.0999 µM) 69.4% | viability, T/C [15] 57% | viability, T/C (second compound 1 µM, first compound 0.000999 µM) 77.3% | viability, T/C (second compound 1 µM, first compound 0.00316 µM) 91.9% | viability, T/C (second compound 1 µM, first compound 0.00999 µM) 131% | viability, T/C [19] 112% | viability, T/C (second compound 1 µM, first compound 0.0999 µM) 63.3% | viability, T/C [21] 52% | viability, T/C (second compound 3.16 µM, first compound 0.000999 µM) 89.5% | viability, T/C (second compound 3.16 µM, first compound 0.00316 µM) 97.3% | viability, T/C (second compound 3.16 µM, first compound 0.00999 µM) 102% | viability, T/C [25] 103% | viability, T/C (second compound 3.16 µM, first compound 0.0999 µM) 80.4% | viability, T/C [27] 56.4% | viability, T/C (second compound 10 µM, first compound 0.000999 µM) 96% | viability, T/C (second compound 10 µM, first compound 0.00316 µM) 95.4% | viability, T/C (second compound 10 µM, first compound 0.00999 µM) 98.8% | viability, T/C [31] 109% | viability, T/C (second compound 10 µM, first compound 0.0999 µM) 75.2% | viability, T/C [33] 53.7%
> 316 nM: IC50 (second compound 0.0316 µM) | IC50 (second compound 0.1 µM) | IC50 (second compound 0.316 µM) | IC50 (second compound 1 µM) | IC50 (second compound 3.16 µM) | IC50 (second compound 10 µM)

O=C(NO)c1cnc(N2CCN(S(=O)(=O)c3ccc4ccccc4c3)CC2)nc1 + CN(C)c1ccc(Nc2c3ccc(NC(=O)CCN4CCCC4)cc3nc3cc(NC(=O)CCN4CCCC4)ccc23)cc1
838 nM: IC50 (second compound 0.316 µM)
792 nM: IC50 (second compound 0.0316 µM)
566 nM: IC50 (second compound 3.16 µM)
inactive: viability, T/C [1] 93.7% | viability, T/C [2] 115% | viability, T/C [3] 79.9% | viability, T/C [4] 37.4% | viability, T/C [5] 29.4% | viability, T/C [6] 1.05% | viability, T/C [7] 100% | viability, T/C [8] 101% | viability, T/C [9] 89.8% | viability, T/C [10] 38.5% | viability, T/C [11] 32.1% | viability, T/C [13] 98% | viability, T/C [14] 111% | viability, T/C [15] 67.4% | viability, T/C [16] 37.4% | viability, T/C [17] 37.1% | viability, T/C [19] 92.5% | viability, T/C [20] 92.9% | viability, T/C [21] 66.8% | viability, T/C [22] 38.1% | viability, T/C [23] 34% | viability, T/C [25] 87.6% | viability, T/C [26] 94.6% | viability, T/C [27] 54.5% | viability, T/C [28] 30.7% | viability, T/C [29] 36.1% | viability, T/C [31] 89.6% | viability, T/C [32] 88.2% | viability, T/C [33] 72.2% | viability, T/C [34] 38.4% | viability, T/C [35] 41.3%
944 nM: IC50 (second compound 0.1 µM)
1110 nM: IC50 (second compound 10 µM)
856 nM: IC50 (second compound 1 µM)
active: viability, T/C [12] 1.23% | viability, T/C [18] 1.09% | viability, T/C [24] 1.34% | viability, T/C [30] 1.79% | viability, T/C [36] 1.96%
